In PMC9967538, “Cytotoxic Effect of Phenylethanoid Glycosides Isolated from Plantago lanceolata L” (Life, 2023):
Read-outs that look alike come from different tables or passages of the source.

Legend:
[1] = format: cell-based; settings: human
[2] = tested on: MCF-12A nontumorigenic mammary epithelial cell line; test: MTT cell proliferation assay, MCF-12A; format: cell-based, human; settings: Homo sapiens, MCF-12A
[3] = MTT cell proliferation assay, MCF-12A; format: cell-based, human; settings: human
[4] = MTT cell proliferation assay, HepG2; format: cell-based, human; settings: human
[5] = tested on: HepG2 hepatocarcinoma cell line; test: MTT cell proliferation assay, HepG2; format: cell-based, human; settings: Homo sapiens, MTT, estimation ± SE
S-180 (sarcoma) = tested on: S-180 (sarcoma); design: method as in PMID 8593444; settings: cited from earlier work
[6] = tested on: Caco-2 colorectal adenocarcinoma cell line; test: MTT cell proliferation assay, Caco-2; format: cell-based; settings: Homo sapiens, estimation ± SE
[7] = tested on: d R Lh-84 cells (rat liver cancer); design: method as in PMID 8593444; settings: cited from earlier work
[8] = tested on: C6 rat glioblastoma cell line; design: method as in PMID 30664150; settings: C6 cells, administered separately, cited from earlier work
[9] = tested on: MCF-7 breast adenocarcinoma cell line; test: MTT cell proliferation assay, MCF-7; format: cell-based, human; settings: for IC50: Homo sapiens, MCF7, MTT, estimation ± SE
[10] = MTT cell proliferation assay, MCF-7; format: cell-based, human; settings: human
[11] = tested on: OVCAR-3 ovarian cancer cell line; test: MTT cell proliferation assay, OVCAR-3; format: cell-based, human; settings: for IC50: Homo sapiens, MTT, estimation ± SE
[12] = MTT cell proliferation assay, OVCAR-3; format: cell-based, human; settings: human
[13] = tested on: lymphocytic leukemia cells P-388; design: method as in PMID 2380718; settings: cited from earlier work
[14] = tested on: MCF-7 breast cancer cells; design: method as in PMID 34719192; settings: cell counting kit 8, cited from earlier work
MDA-MB 231 cells = tested on: MDA-MB 231 cells; design: method as in PMID 34719192; settings: cell counting kit 8, cited from earlier work
[15] = MTT cell proliferation assay, MDA-MB-231; format: cell-based, human; settings: human
[16] = tested on: MDA-MB-231 breast adenocarcinoma cell line; test: MTT cell proliferation assay, MDA-MB-231; format: cell-based, human; settings: for IC50: Homo sapiens, MTT, estimation ± SE
[17] = tested on: HL-60 promyelocytic leukemia cells; design: method as in PMID 9477175; settings: HL-60 cell death; cited from earlier work
protein kinase C (PKC) = settings: cited from earlier work
[18] = tested on: pre-senescent normal human diploid fibroblasts; design: method as in PMID 29505920; settings: 3-week treatment; cited from earlier work
[19] = tested on: HeLa (human epithelial carcinoma); design: method as in PMID 8593444; settings: cited from earlier work
[20] = tested on: glioblastoma cell line T98G; design: method as in PMID 36551708; settings: cited from earlier work
[21] = tested on: P-388/D1 (mouse lymphoid tumor); design: method as in PMID 8593444; settings: cited from earlier work

Which results are given for `C[C@@H]1O[C@@H](O[C@@H]2[C@@H](O)[C@H](OCCc3ccc(O)c(O)c3)O[C@H](CO)[C@H]2OC(=O)/C=C/c2ccc(O)c(O)c2)[C@H](O)[C@H](O)[C@H]1O` [Acteoside]?
viability at 200 µM [1]: ≤ 30%; IC50 ([2]; 24 h, MTT, estimation ± SE, read-out: IC50): 362.3 ± 1.86 µM; IC50 ([2]; 48 h, MTT, estimation ± SE, read-out: IC50): 347 ± 3.67 µM; IC50 ([2]; 72 h, MTT, estimation ± SE, read-out: IC50): 326 ± 3.89 µM; IC50 ([2]; time not stated, summary of Table 1, read-out: IC50 (potency against the MCF-12A line)): ~300 µM; viability at 400 µM [3]: < 30%; viability at 200 µM [4]: ≤ 30%; IC50 ([5]; HepG2, 24 h): 261 ± 3.52 µM; IC50 ([5]; HepG2, 48 h): 220 ± 2.65 µM; IC50 ([5]; HepG2, 72 h): 173.8 ± 1.59 µM; IC50 (S-180 (sarcoma); S-180, converted from µg/mL, read-out: IC50): 47.4 µM; IC50 (S-180 (sarcoma); S-180): 29.6 µg/mL; IC50 ([6]; Caco-2, 24 h, values exceeding 500 μM determined with CompuSyn from dose-response curve estimation): > 500 µM; IC50 ([6]; Caco-2, 48 h): 467 ± 8.71 µM; IC50 ([6]; Caco-2, 72 h): 280 ± 6.13 µM; IC50 [7]: 61.98 µg/mL; IC50 ([7]; converted from µg/mL, read-out: IC50): 99.2 µM; cell viability ([8]; 50 µM): ~80%; IC50 ([9]; MCF-7, 24 h): 219.1 ± 1.4 µM; IC50 ([9]; MCF-7, 48 h): 154 ± 2.71 µM; IC50 ([9]; MCF-7, 72 h): 113 ± 2.81 µM; toxic effect (in words) ([9]; MCF-7, 200 μM, after 24 h of treatment): highly toxic effect; viability at 200 µM [10]: ≤ 30%; IC50 ([11]; OVCAR-3, 24 h): 314 ± 3.52 µM; IC50 ([11]; OVCAR-3, 48 h): 232 ± 5.08 µM; IC50 ([11]; OVCAR-3, 72 h): 163 ± 3.41 µM; toxic effect (in words) ([11]; OVCAR-3, 200 μM, after 24 h of treatment): highly toxic effect; viability at 200 µM [12]: ≤ 30%; ED50 ([13]; lymphocytic leukemia cells P-388, converted from µg/mL): 4.16 µM; ED50 ([13]; lymphocytic leukemia cells P-388): 2.6 µg/mL; IC50 ([14]; MCF-7, 24 h exposure): 0.127 µM; IC50 ([14]; MCF-7, 48 h exposure): 0.217 µM; IC50 ([14]; MCF-7, 72 h exposure): 0.283 µM; IC50 (MDA-MB 231 cells; MDA-MB 231, 24 h exposure): 0.16 µM; IC50 (MDA-MB 231 cells; MDA-MB 231, 48 h exposure): 0.258 µM; IC50 (MDA-MB 231 cells; MDA-MB 231, 72 h exposure): 0.256 µM; viability at 200 µM [15]: ≤ 30%; IC50 ([16]; MDA-MB-231, 24 h): 312 ± 3.28 µM; IC50 ([16]; MDA-MB-231, 48 h): 245 ± 4.96 µM; IC50 ([16]; MDA-MB-231, 72 h): 200 ± 2.45 µM; toxic effect (in words) ([16]; MDA-MB-231, 200 μM, after 24 h of treatment): highly toxic effect; IC50 [17]: 26.7 µM; inhibition of protein kinase C (in words) (protein kinase C (PKC)): inhibitor; cytotoxic effect (in words) [18]: no cytotoxic effect; IC50 ([19]; HeLa (human epithelial carcinoma), first value listed, converted, read-out: IC50): > 320 µM; IC50 ([19]; HeLa (human epithelial carcinoma), first value listed): > 200 µg/mL; IC50 ([19]; HeLa cells, second value listed, converted, read-out: IC50): 12.5 µM; IC50 [20]: 85 µM; IC50 ([21]; P-388/D1, converted from µg/mL, read-out: IC50): 354 µM; IC50 ([21]; P-388/D1): 221.0 µg/mL

With `O=c1cc(-c2ccc(O)c(O)c2)oc2c([C@@H]3O[C@H](CO)[C@@H](O)[C@H](O)[C@H]3O)c(O)cc(O)c12` [orientin, reference compound] as the compound, how does the IC50 [20] read?
Its IC50 is > 100 µM.

With `Cn1nnc2c(C(N)=O)ncn2c1=O` [temozolomide, reference compound] as the compound, how does the cell viability ([8]; 5 mM) read?
Its cell viability is “ca. 52%”.
